From US9849130B2 (KamTek, Inc., priority 2014, dated 2017)
Converted amounts (≈) assume the structure as drawn.

How the values were obtained:
Enterococcus faecalis = test: MIC by microdilution in Mueller-Hinton broth against Enterococcus faecalis strains; assay type: cell-based
Lactobacillus strains = test: MIC against Lactobacillus strains; assay type: cell-based, Lactobacillus spp.; details: broth microdilution, BHI with 0.02% Tween 80, pH 6.0
Escherichia coli strains = test: MIC by microdilution in Mueller-Hinton broth against Escherichia coli strains; assay type: cell-based; details: for MIC: Mueller-Hinton broth
C. perfringens MH310 = test: microbe, parasite or virus in culture; assay type: cell-based; details: C. perfringens MH310
Enterococci faecium = test: MIC by microdilution in Mueller-Hinton broth against Enterococci faecium strains; assay type: cell-based, Enterococcus faecium; details: Mueller-Hinton broth
[1] = test system: Clostridium difficile (CD) strains; test: microbe, parasite or virus in culture; assay type: cell-based
Bifidobacterium strains = test: MIC by microdilution in BHI broth against Bifidobacterium strains; assay type: cell-based, Bifidobacterium spp.; details: BHI broth
[2] = test system: Staphylococcus aureus strains; test: MIC by microdilution in Mueller-Hinton broth against Staphylococcus aureus strains; assay type: cell-based
[3] = test system: Lachnospiraceae and related bacterial strains; test: MIC against Lachnospiraceae and related bacterial strains; assay type: cell-based, Lachnospiraceae spp.; details: broth microdilution, brucella broth
Bacteroides Strains = test: MIC by microdilution in Brucella broth against Bacteroides strains; assay type: cell-based, Bacteroides spp.

Q: Which MIC (Enterococcus faecalis; E. faecalis NR 31884) does the source give for `CCN=c1cc2n(-c3cccc(C(F)(F)F)c3)c3ccccc3nc-2cc1Nc1cccc(C(F)(F)F)c1` [B4129] here?
A: >32 µg/mL

Q: What about the MIC (Enterococcus faecalis; E. faecalis NR 31885) of the same compound?
A: >32 µg/mL

Q: And the MIC (Enterococcus faecalis; E. faecalis NR 31886)?
A: >32 µg/mL

Q: What about the MIC (Enterococcus faecalis; E. faecalis NR 31887) of the same compound?
A: >32 µg/mL

Q: And the MIC (Enterococcus faecalis; E. faecalis NR 31888)?
A: >32 µg/mL

Q: What about the MIC (Lactobacillus strains; Lactobacillus crispatus HM-637) of the same compound?
A: 16 µg/mL (≈ 30.4 µM)

Q: And the MIC (Lactobacillus strains; Lactobacillus gasseri HM-104)?
A: >32 µg/mL

Q: And the MIC (Lactobacillus strains; Lactobacillus iners HM-126)?
A: 1 µg/mL (≈ 1.9 µM)

Q: What about the MIC (Lactobacillus strains; Lactobacillus jensenii HM-105) of the same compound?
A: >32 µg/mL

Q: And the MIC (Lactobacillus strains; Lactobacillus jhonsonii HM-643)?
A: >32 µg/mL

Q: What about the MIC (Lactobacillus strains; Lactobacillus reuteri HM-102) of the same compound?
A: >32 µg/mL

Q: What about the MIC (Lactobacillus strains; Lactobacillus rhamnosus HM-106) of the same compound?
A: >32 µg/mL

Q: What about the MIC (Lactobacillus strains; Lactobacillus sp. HM-228) of the same compound?
A: 1 µg/mL (≈ 1.9 µM)

Q: And the MIC (Lactobacillus strains; Lactobacillus sp. HM-478)?
A: >32 µg/mL

Q: What about the MIC (Lactobacillus strains; Lactobacillus vaginalis HM-405) of the same compound?
A: 2 µg/mL (≈ 3.8 µM)

Q: What about the “activity against E. coli (in words)” value (Escherichia coli strains) of the same compound?
A: relatively inactive

Q: What about the MIC (Escherichia coli strains; Escherichia coli strain NR 6) of the same compound?
A: >32 µg/mL

Q: And the MIC (Escherichia coli strains; Escherichia coli strain NR 8)?
A: >32 µg/mL

Q: And the MIC (Escherichia coli strains; Escherichia coli strain NR 96)?
A: >32 µg/mL

Q: What about the MIC (Escherichia coli strains; Escherichia coli strain NR 104) of the same compound?
A: >32 µg/mL

Q: And the MIC (Escherichia coli strains; Escherichia coli strain NR 17626)?
A: >32 µg/mL

Q: And the MIC (Escherichia coli strains; Escherichia coli strain NR 17627)?
A: >32 µg/mL

Q: And the MIC (Escherichia coli strains; Escherichia coli strain NR 17633)?
A: >32 µg/mL

Q: And the MIC (Escherichia coli strains; Escherichia coli strain NR 17647)?
A: >32 µg/mL

Q: And the MIC (Escherichia coli strains; Escherichia coli strain NR 17650)?
A: >32 µg/mL

Q: And the MIC (Escherichia coli strains; Escherichia coli strain NR 17661)?
A: >32 µg/mL

Q: And the MIC (C. perfringens MH310; BB)?
A: 0.25 µg/mL (≈ 0.475 µM)

Q: And the MIC (C. perfringens MH310; BHI)?
A: 2 µg/mL (≈ 3.8 µM)

Q: And the MIC (Enterococci faecium; E. faecium NR 31903)?
A: >32 µg/mL

Q: What about the MIC (Enterococci faecium; E. faecium NR 31909) of the same compound?
A: >32 µg/mL

Q: What about the MIC (Enterococci faecium; E. faecium NR 31912) of the same compound?
A: >32 µg/mL

Q: What about the MIC (Enterococci faecium; E. faecium NR 31915) of the same compound?
A: >32 µg/mL

Q: And the MIC (Enterococci faecium; E. faecium NR 31916)?
A: >32 µg/mL

Q: What about the “antibacterial activity against CD, fold greater than MET” value [1] of the same compound?
A: 32 fold

Q: And the “antibacterial activity against CD, fold greater than VAN” value [1]?
A: 16 fold

Q: And the MIC ([1]; CD strain BAA1805 (hyper-virulent strain BI/NAP1/027), BB)?
A: 0.062 µg/mL (≈ 0.118 µM)

Q: And the MIC50 ([1]; n = 37)?
A: ≦0.031 μg/ml

Q: What about the MIC90 ([1]; n = 37) of the same compound?
A: 0.125 µg/mL (≈ 0.237 µM)

Q: What about the “MIC Range” value ([1]; n = 37) of the same compound?
A: ≦0.031-0.25 μg/ml

Q: And the MIC (Bifidobacterium strains; Bifidobacterium adolescentis HM-633)?
A: >32 µg/mL

Q: And the MIC (Bifidobacterium strains; Bifidobacterium breve HM-411)?
A: >32 µg/mL

Q: What about the MIC (Bifidobacterium strains; Bifidobacterium breve HM-412) of the same compound?
A: 0.25 µg/mL (≈ 0.475 µM)

Q: What about the MIC (Bifidobacterium strains; Bifidobacterium breve HM-856) of the same compound?
A: >32 µg/mL

Q: And the MIC (Bifidobacterium strains; Bifidobacterium breve HM-1120)?
A: >32 µg/mL

Q: What about the MIC (Bifidobacterium strains; Bifidobacterium longum HM-845) of the same compound?
A: ≦0.031 μg/ml

Q: What about the MIC (Bifidobacterium strains; Bifidobacterium longum HM-846) of the same compound?
A: 0.25 µg/mL (≈ 0.475 µM)

Q: What about the MIC (Bifidobacterium strains; Bifidobacterium longum HM-847) of the same compound?
A: 2 µg/mL (≈ 3.8 µM)

Q: What about the MIC (Bifidobacterium strains; Bifidobacterium sp. HM-30) of the same compound?
A: 4 µg/mL (≈ 7.6 µM)

Q: And the MIC (Bifidobacterium strains; Bifidobacterium sp. HM-868)?
A: >32 µg/mL

Q: And the MIC ([2]; Staphylococcus aureus strain NR 10129)?
A: 32 µg/mL (≈ 60.8 µM)

Q: What about the MIC ([2]; Staphylococcus aureus strain NR 10186) of the same compound?
A: >32 µg/mL

Q: And the MIC ([2]; Staphylococcus aureus strain NR 10187)?
A: >32 µg/mL

Q: And the MIC ([2]; Staphylococcus aureus strain NR 10188)?
A: >32 µg/mL

Q: What about the MIC ([2]; Staphylococcus aureus strain NR 10189) of the same compound?
A: >32 µg/mL

Q: And the MIC ([2]; Staphylococcus aureus strain NR 10191)?
A: >32 µg/mL

Q: What about the MIC ([2]; Staphylococcus aureus strain NR 10192) of the same compound?
A: >32 µg/mL

Q: And the MIC ([2]; Staphylococcus aureus strain NR 10193)?
A: >32 µg/mL

Q: What about the MIC ([2]; Staphylococcus aureus strain NR 10194) of the same compound?
A: 32 µg/mL (≈ 60.8 µM)

Q: What about the MIC ([2]; Staphylococcus aureus strain NR 10198) of the same compound?
A: >32 µg/mL

Q: What about the MIC ([3]; Clostridiales bacterium HM-84) of the same compound?
A: ≦0.031 μg/ml

Q: And the MIC ([3]; Clostridiales bacterium HM-182)?
A: 0.125 µg/mL (≈ 0.237 µM)

Q: And the MIC ([3]; Eubacterium sp. HM-178)?
A: 0.125 µg/mL (≈ 0.237 µM)

Q: And the MIC ([3]; Lachnospiraceae sp. HM-7)?
A: ≦0.031 μg/ml

Q: And the MIC ([3]; Lachnospiraceae sp. HM-150)?
A: 0.125 µg/mL (≈ 0.237 µM)

Q: What about the MIC ([3]; Lachnospiraceae sp. HM-153) of the same compound?
A: 0.125 µg/mL (≈ 0.237 µM)

Q: What about the MIC ([3]; Lachnospiraceae sp. HM-154) of the same compound?
A: 0.125 µg/mL (≈ 0.237 µM)

Q: And the MIC ([3]; Lachnospiraceae sp. HM-157)?
A: 0.25 µg/mL (≈ 0.475 µM)

Q: What about the MIC ([3]; Lachnospiraceae sp. HM-161) of the same compound?
A: 0.125 µg/mL (≈ 0.237 µM)

Q: And the MIC ([3]; Lachnospiraceae sp. HM-480)?
A: 0.062 µg/mL (≈ 0.118 µM)

Q: What about the MIC ([3]; Lachnospiraceae sp. HM-558) of the same compound?
A: 0.125 µg/mL (≈ 0.237 µM)

Q: And the MIC ([3]; Lachnospiraceae sp. HM-768)?
A: ≦0.031 μg/ml

Q: What about the MIC ([3]; Lachnospiraceae sp. HM-868) of the same compound?
A: >32 µg/mL

Q: And the MIC ([3]; Peptostreptococcaceae sp. HM-766)?
A: 0.5 µg/mL (≈ 0.95 µM)

Q: What about the MIC (Bacteroides Strains; B. caccae HM728) of the same compound?
A: 2 µg/mL (≈ 3.8 µM)

Q: What about the MIC (Bacteroides Strains; B. eggerthii HM210) of the same compound?
A: 2 µg/mL (≈ 3.8 µM)

Q: What about the MIC (Bacteroides Strains; B. fragilis HM709) of the same compound?
A: 2 µg/mL (≈ 3.8 µM)

Q: And the MIC (Bacteroides Strains; B. fragilis HM710)?
A: 2 µg/mL (≈ 3.8 µM)

Q: What about the MIC (Bacteroides Strains; B. fragilis HM714) of the same compound?
A: 4 µg/mL (≈ 7.6 µM)

Q: What about the MIC (Bacteroides Strains; B. ovatus HM222) of the same compound?
A: 0.25 µg/mL (≈ 0.475 µM)

Q: What about the MIC (Bacteroides Strains; B. spp. HM18) of the same compound?
A: 16 µg/mL (≈ 30.4 µM)

Q: What about the MIC (Bacteroides Strains; B. spp. HM19) of the same compound?
A: 0.5 µg/mL (≈ 0.95 µM)

Q: And the MIC (Bacteroides Strains; B. spp. HM20)?
A: 2 µg/mL (≈ 3.8 µM)

Q: What about the MIC (Bacteroides Strains; B. spp. HM22) of the same compound?
A: 2 µg/mL (≈ 3.8 µM)

Q: What about the MIC (Bacteroides Strains; B. spp. HM23) of the same compound?
A: 16 µg/mL (≈ 30.4 µM)

Q: And the MIC (Bacteroides Strains; B. spp. HM27)?
A: 1 µg/mL (≈ 1.9 µM)

Q: What about the MIC (Bacteroides Strains; B. spp. HM28) of the same compound?
A: 2 µg/mL (≈ 3.8 µM)

Q: What about the MIC (Bacteroides Strains; B. spp. HM58) of the same compound?
A: 2 µg/mL (≈ 3.8 µM)

Q: What about the MIC (Bacteroides Strains; B. stercoris HM1036) of the same compound?
A: 0.25 µg/mL (≈ 0.475 µM)
